The supplement of paper PMC11208160
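Note: IS621 bridge recombinase in Escherichia coli cells against a fixed T5 target plasmid.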

Experiment: recombinant UMI read abundance after kanamycin selection (control-corrected) (log10(CPM+1)); higher = more efficient recombination; extreme values may be limits of the assay; sequences stand for … in AGTGCAGAGAAAATCGGCCAGTTTTCTCTGCCTGCAGTCCGCATGCCGTGGGACCCCTTGGGTTCTAACCTGTTGCCTAGATTTATGCAGCGGACTGCCTTTCTCCCAAAGTGATAAACCGG…AGGTTGGTTTCACT; site = the 11-nt donor
Outline: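 In Escherichia coli, a pool of donor and donor-binding-loop pairs, each with a 12-nt UMI, was tested for the IS621 bridge recombinase. Plating was on IPTG (0.07 mM) plus kanamycin, or without selection, in two replicates. Recombinant UMIs were amplified by PCR across the donor–target junction and sequenced, and counts were reported as log10(CPM+1) after averaging and control-derived scaling.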
For “CGCTAGCCATGGACCGGTTTTCCCGGTAATCCGTATTTGCC (site CACTAGCCTGG)”, the “recombinant UMI read abundance (log10)” value was 0.0111.
In the case of “CGCTAGCCATGGACCGGTTTTCCCGGTAATCCGTATTTGCC (site CCCTAGCCTGG)”, the “recombinant UMI read abundance (log10)” value is reported as 0.
With “CGCTAGCCATGGACCGGTTTTCCCGGTAATCCGTATTTGCC (site CGCTAGCCTGG)” the “recombinant UMI read abundance (log10)” value was 0.816.
In the case of “CGCTAGCCATGGACCGGTTTTCCCGGTAATCCGTATTTGCC (site CTCTAGCCTGG)”, the “recombinant UMI read abundance (log10)” value is reported as 1.8.
With “CGCTCAACATGGACCGGTTTTCCCGGTAATCCGTATTTGCT (site CGATCATCTAG)” the “recombinant UMI read abundance (log10)” value was 0.
For “CGCTCAACATGGACCGGTTTTCCCGGTAATCCGTATTTGCT (site CGCTCAACTAG)”, the “recombinant UMI read abundance (log10)” value was 0.
For “CGCTCAGCATGGACCGGTTTTCCCGGTAATCCGTATTTGGG (site AGCTCAGCTCC)”, the “recombinant UMI read abundance (log10)” value was 0.
For “CGCTCAGCATGGACCGGTTTTCCCGGTAATCCGTATTTGGG (site CGCTCAGCTCC)”, the “recombinant UMI read abundance (log10)” value was 0.0677.
For “CGCTCAGCATGGACCGGTTTTCCCGGTAATCCGTATTTGGG (site GGCTCAGCTCC)”, the “recombinant UMI read abundance (log10)” value was 0.
In the case of “CGCTCAGCATGGACCGGTTTTCCCGGTAATCCGTATTTGGG (site TGCTCAGCTCC)”, the “recombinant UMI read abundance (log10)” value is reported as 0.00882.
With “CGCTCCGCATGGACCGGTTTTCCCGGTAATCCGTATTTGCA (site CGCTCCGCTTG)” the “recombinant UMI read abundance (log10)” value was 1.79.
With “CGCTCCTCATGGACCGGTTTTCCCGGTAATCCGTATTTGCA (site CGCTCCTCTTG)” the “recombinant UMI read abundance (log10)” value was 2.84.
For “CGCTGAGCATGGACCGGTTTTCCCGGTAATCCGTATTTGGT (site CGCTGAGCTAC)”, the “recombinant UMI read abundance (log10)” value was 1.31.
In the case of “CGCTGATCATGGACCGGTTTTCCCGGTAATCCGTATTTGCC (site CGCTGATCTGG)”, the “recombinant UMI read abundance (log10)” value is reported as 1.88.
In the case of “CGCTGGACATGGACCGGTTTTCCCGGTAATCCGTATTTGAA (site CGCTGGACTTT)”, the “recombinant UMI read abundance (log10)” value is reported as 1.77.
For “CGCTGTACATGGACCGGTTTTCCCGGTAATCCGTATTTGCT (site CGCAGTACTAG)”, the “recombinant UMI read abundance (log10)” value was 0.
With “CGCTGTACATGGACCGGTTTTCCCGGTAATCCGTATTTGCT (site CGCCGTACTAG)” the “recombinant UMI read abundance (log10)” value was 1.54.
For “CGCTGTACATGGACCGGTTTTCCCGGTAATCCGTATTTGCT (site CGCGGTACTAG)”, the “recombinant UMI read abundance (log10)” value was 0.
With “CGCTGTACATGGACCGGTTTTCCCGGTAATCCGTATTTGCT (site CGCTGTACTAG)” the “recombinant UMI read abundance (log10)” value was 1.68.
In the case of “CGCTTCTCATGGACCGGTTTTCCCGGTAATCCGTATTTGGG (site CACTTCTCTCC)”, the “recombinant UMI read abundance (log10)” value is reported as 0.0042.
For “CGCTTCTCATGGACCGGTTTTCCCGGTAATCCGTATTTGGG (site CCCTTCTCTCC)”, the “recombinant UMI read abundance (log10)” value was 0.0589.
With “CGCTTCTCATGGACCGGTTTTCCCGGTAATCCGTATTTGGG (site CGCTTCTCTCC)” the “recombinant UMI read abundance (log10)” value was 0.00699.
In the case of “CGCTTCTCATGGACCGGTTTTCCCGGTAATCCGTATTTGGG (site CTCTTCTCTCC)”, the “recombinant UMI read abundance (log10)” value is reported as 0.0109.
In the case of “CGCTTGGCATGGACCGGTTTTCCCGGTAATCCGTATTTGGA (site CACTTGGCTTC)”, the “recombinant UMI read abundance (log10)” value is reported as 0.361.
For “CGCTTGGCATGGACCGGTTTTCCCGGTAATCCGTATTTGGA (site CCCTTGGCTTC)”, the “recombinant UMI read abundance (log10)” value was 0.
In the case of “CGCTTGGCATGGACCGGTTTTCCCGGTAATCCGTATTTGGA (site CGCTTGGCTTC)”, the “recombinant UMI read abundance (log10)” value is reported as 0.824.
For “CGCTTGGCATGGACCGGTTTTCCCGGTAATCCGTATTTGGA (site CTCTTGGCTTC)”, the “recombinant UMI read abundance (log10)” value was 0.00767.
For “CGGAAACCATGGACCGGTTTTCCCGGTAATCCGTATTTGCT (site CGGAAACCTAG)”, the “recombinant UMI read abundance (log10)” value was 0.
In the case of “CGGAAACCATGGACCGGTTTTCCCGGTAATCCGTATTTGCT (site CGGAATCCTAA)”, the “recombinant UMI read abundance (log10)” value is reported as 0.
In the case of “CGGAACCCATGGACCGGTTTTCCCGGTAATCCGTATTTGGT (site CGGAACCCTAC)”, the “recombinant UMI read abundance (log10)” value is reported as 1.06.
In the case of “CGGAACCCATGGACCGGTTTTCCCGGTAATCCGTATTTGGT (site CGGAATCCTAA)”, the “recombinant UMI read abundance (log10)” value is reported as 0.
In the case of “CGGAACCCATGGACCGGTTTTCCCGGTAATCCGTATTTGTG (site CGGAACCCTCA)”, the “recombinant UMI read abundance (log10)” value is reported as 1.13.
For “CGGAACCCATGGACCGGTTTTCCCGGTAATCCGTATTTGTG (site CGGAATCCTAA)”, the “recombinant UMI read abundance (log10)” value was 0.
For “CGGAAGACATGGACCGGTTTTCCCGGTAATCCGTATTTGTG (site CGGAAGACTCA)”, the “recombinant UMI read abundance (log10)” value was 2.67.
With “CGGAATCCATGGACCGGTTTTCCCGGTAATCCGTATTTGAC (site CGGAATCCTAA)” the “recombinant UMI read abundance (log10)” value was 0.003.
For “CGGAATCCATGGACCGGTTTTCCCGGTAATCCGTATTTGAC (site CGGAATCCTGT)”, the “recombinant UMI read abundance (log10)” value was 1.1.
For “CGGAATCCATGGACCGGTTTTCCCGGTAATCCGTATTTGAT (site CGGAATCCTAA)”, the “recombinant UMI read abundance (log10)” value was 0.
For “CGGAATCCATGGACCGGTTTTCCCGGTAATCCGTATTTGAT (site CGGAATCCTAC)”, the “recombinant UMI read abundance (log10)” value was 0.0207.
For “CGGAATCCATGGACCGGTTTTCCCGGTAATCCGTATTTGAT (site CGGAATCCTAG)”, the “recombinant UMI read abundance (log10)” value was 0.
With “CGGAATCCATGGACCGGTTTTCCCGGTAATCCGTATTTGAT (site CGGAATCCTAT)” the “recombinant UMI read abundance (log10)” value was 0.646.
In the case of “CGGAATCCATGGACCGGTTTTCCCGGTAATCCGTATTTGGT (site CGGAATCCTAA)”, the “recombinant UMI read abundance (log10)” value is reported as 0.
With “CGGAATCCATGGACCGGTTTTCCCGGTAATCCGTATTTGGT (site CGGAATCCTAC)” the “recombinant UMI read abundance (log10)” value was 0.913.
With “CGGAATCCATGGACCGGTTTTCCCGGTAATCCGTATTTGGT (site CGGAATCCTAG)” the “recombinant UMI read abundance (log10)” value was 0.
In the case of “CGGAATCCATGGACCGGTTTTCCCGGTAATCCGTATTTGGT (site CGGAATCCTAT)”, the “recombinant UMI read abundance (log10)” value is reported as 0.
In the case of “CGGAATCCATGGACCGGTTTTCCCGGTAATCCGTATTTGTA (site CGGAATCCTAA)”, the “recombinant UMI read abundance (log10)” value is reported as 0.
In the case of “CGGAATCCATGGACCGGTTTTCCCGGTAATCCGTATTTGTA (site CGGAATCCTCA)”, the “recombinant UMI read abundance (log10)” value is reported as 0.781.
With “CGGAATCCATGGACCGGTTTTCCCGGTAATCCGTATTTGTA (site CGGAATCCTGA)” the “recombinant UMI read abundance (log10)” value was 0.
For “CGGAATCCATGGACCGGTTTTCCCGGTAATCCGTATTTGTA (site CGGAATCCTTA)”, the “recombinant UMI read abundance (log10)” value was 1.29.
For “CGGAATGCATGGACCGGTTTTCCCGGTAATCCGTATTTGGT (site CGGAATCCTAA)”, the “recombinant UMI read abundance (log10)” value was 0.
In the case of “CGGAATGCATGGACCGGTTTTCCCGGTAATCCGTATTTGGT (site CGGAATGCTAC)”, the “recombinant UMI read abundance (log10)” value is reported as 2.27.
With “CGGAATTCATGGACCGGTTTTCCCGGTAATCCGTATTTGTT (site CGGAATACTAA)” the “recombinant UMI read abundance (log10)” value was 0.00592.
With “CGGAATTCATGGACCGGTTTTCCCGGTAATCCGTATTTGTT (site CGGAATCCTAA)” the “recombinant UMI read abundance (log10)” value was 0.0141.
For “CGGAATTCATGGACCGGTTTTCCCGGTAATCCGTATTTGTT (site CGGAATGCTAA)”, the “recombinant UMI read abundance (log10)” value was 0.00572.
With “CGGAATTCATGGACCGGTTTTCCCGGTAATCCGTATTTGTT (site CGGAATTCTAA)” the “recombinant UMI read abundance (log10)” value was 2.72.
With “CGGACATCATGGACCGGTTTTCCCGGTAATCCGTATTTGCG (site CGGACATCTAG)” the “recombinant UMI read abundance (log10)” value was 0.
For “CGGACATCATGGACCGGTTTTCCCGGTAATCCGTATTTGCG (site CGGACATCTCG)”, the “recombinant UMI read abundance (log10)” value was 2.25.
In the case of “CGGACATCATGGACCGGTTTTCCCGGTAATCCGTATTTGCG (site CGGACATCTGG)”, the “recombinant UMI read abundance (log10)” value is reported as 0.
With “CGGACATCATGGACCGGTTTTCCCGGTAATCCGTATTTGCG (site CGGACATCTTG)” the “recombinant UMI read abundance (log10)” value was 0.00626.
In the case of “CGGACCCCATGGACCGGTTTTCCCGGTAATCCGTATTTGTT (site CGGAATCCTAA)”, the “recombinant UMI read abundance (log10)” value is reported as 0.00407.
For “CGGACCCCATGGACCGGTTTTCCCGGTAATCCGTATTTGTT (site CGGACCCCTAA)”, the “recombinant UMI read abundance (log10)” value was 1.02.
With “CGGACTACATGGACCGGTTTTCCCGGTAATCCGTATTTGCG (site CGGACTACTCG)” the “recombinant UMI read abundance (log10)” value was 1.64.
For “CGGACTTCATGGACCGGTTTTCCCGGTAATCCGTATTTGCC (site CGGACTTCTGG)”, the “recombinant UMI read abundance (log10)” value was 1.27.
For “CGGATGACATGGACCGGTTTTCCCGGTAATCCGTATTTGCA (site CGGATGACTTG)”, the “recombinant UMI read abundance (log10)” value was 2.89.
In the case of “CGGATGGCATGGACCGGTTTTCCCGGTAATCCGTATTTGAA (site CGGATGGCTTT)”, the “recombinant UMI read abundance (log10)” value is reported as 2.15.
For “CGGATTCCATGGACCGGTTTTCCCGGTAATCCGTATTTGCT (site CGGAATCCTAA)”, the “recombinant UMI read abundance (log10)” value was 0.
In the case of “CGGATTCCATGGACCGGTTTTCCCGGTAATCCGTATTTGCT (site CGGATTCCTAG)”, the “recombinant UMI read abundance (log10)” value is reported as 0.
For “CGGCACTCATGGACCGGTTTTCCCGGTAATCCGTATTTGTA (site CGGCACTCTTA)”, the “recombinant UMI read abundance (log10)” value was 3.03.
In the case of “CGGCAGTCATGGACCGGTTTTCCCGGTAATCCGTATTTGCC (site CGGAAGTCTGG)”, the “recombinant UMI read abundance (log10)” value is reported as 0.
With “CGGCAGTCATGGACCGGTTTTCCCGGTAATCCGTATTTGCC (site CGGCAGTCTGG)” the “recombinant UMI read abundance (log10)” value was 2.22.
For “CGGCAGTCATGGACCGGTTTTCCCGGTAATCCGTATTTGCC (site CGGGAGTCTGG)”, the “recombinant UMI read abundance (log10)” value was 0.
With “CGGCAGTCATGGACCGGTTTTCCCGGTAATCCGTATTTGCC (site CGGTAGTCTGG)” the “recombinant UMI read abundance (log10)” value was 0.
In the case of “CGGCCATCATGGACCGGTTTTCCCGGTAATCCGTATTTGCT (site CGGACATCTAG)”, the “recombinant UMI read abundance (log10)” value is reported as 0.
With “CGGCCATCATGGACCGGTTTTCCCGGTAATCCGTATTTGCT (site CGGCCATCTAG)” the “recombinant UMI read abundance (log10)” value was 1.29.
In the case of “CGGCCATCATGGACCGGTTTTCCCGGTAATCCGTATTTGCT (site CGGGCATCTAG)”, the “recombinant UMI read abundance (log10)” value is reported as 0.0046.
For “CGGCCATCATGGACCGGTTTTCCCGGTAATCCGTATTTGCT (site CGGTCATCTAG)”, the “recombinant UMI read abundance (log10)” value was 0.
